Reference: patent US8426426B2, “Gyrase inhibitors and uses thereof” (Vertex Pharmaceuticals Incorporated, priority 2002, dated 2013)
Converted amounts (≈) assume the structure as drawn.

Tests used:
[1] = tested on: S. aureus; experiment: Susceptibility testing in liquid media (MIC assay) against S. aureus; type: cell-based; conditions: 35° C. overnight (16 to 20 hours); for MIC: Staphylococcus aureus
Procedure: (§1) Compounds of this invention were tested for antimicrobial activity by susceptibility testing in liquid media. Such assays were performed within the guidelines of the latest NCCLS document governing such practices: “M7-A5 Methods for dilution Antimicrobial Susceptibility Tests for Bacteria that Grow Aerobically; Approved Standard—Fifth Edition (2000)”. Other publications such as “Antibiotics in Laboratory Medicine” (Edited by V. Lorian, Publishers Williams and Wilkins, 1996) provide essential practical techniques in laboratory antibiotic testing.
(§2) Several discrete bacterial colonies (3 to 7) from a freshly streaked plate were transferred to an appropriate rich broth medium such as MHB, supplemented where appropriate for the more fastidious organisms. This was grown overnight to high density followed by a 1 or 2-thousand-fold dilution to give an inoculation density of between 5×10^5 and 5×10^6 CFU per mL. Alternatively, the freshly picked colonies can be incubated at 37° C. for about 4 to 8 hours until the culture equals or exceeds a turbidity of a 0.5 McFarland standard (approximately 1.5×10^8 cells per mL) and diluted to give the same CFU per mL as above. In a more convenient method, the inoculum was prepared using a commercially available mechanical device (the BBL PROMPT System) that involves touching five colonies directly with a wand, containing crosshatch grooves at its bottom, followed by suspension of the bacteria in an appropriate volume of saline. Dilution to the appropriate inoculum cell density was made from this cell suspension. The broth used for testing consists of MHB supplemented with 50 mg per L of Ca^2+ and 25 mg per L of Mg^2+. Standard dilution panels of control antibiotics were made and stored as in the NCCLS standard M7-A5, the dilution range typically being in the 128 μg per mL to 0.015 μg per mL (by 2-fold serial dilution). The test compounds were dissolved and diluted fresh for experimentation on the same day; the same or similar ranges of concentration as above being used. The test compounds and controls were dispensed into a multiwell plate and test bacteria added such that the final inoculation was approximately 5×10^4 CFU per well and the final volume was 100 μL. The plates were incubated at 35° C. overnight (16 to 20 hours) and checked by eye for turbidity or quantitated with a multiwell plate reader. […] Such determinations were also compared to the appropriate tables contained in the above two publications to ensure that the range of antibacterial activity is within the acceptable range for this standardized assay.
(§3) The compound numbers correspond to the compound numbers in Table 1.

[2] = tested on: S. pneumoniae; experiment: Susceptibility testing in liquid media (MIC assay) against S. pneumoniae; type: cell-based; conditions: Streptococcus pneumoniae, 35° C. overnight (16 to 20 hours)
Procedure: as §1, §2, §3

“1-(7-Cyclohexanecarbonyl-5-pyridin-3-yl-1H-benzoimidazol-2-yl)-3-ethyl-urea [Compound I-14]” was tested, and the “MIC (Activity) against S. aureus” value [1] was “C (an MIC of greater than 1.0 μg/mL)”.
`CCNC(=O)Nc1nc2cc(-c3cccnc3)cc(C(=O)OC)c2[nH]1` [Compound I-1, 2-(3-Ethyl-ureido)-6-pyridin-3-yl-3H-benzoimidazole-4-carboxylic acid methyl ester] was tested, and the MIC [1] was ≤ 0.5 µg/mL and the MIC [2] was ≤ 0.5 µg/mL.
For `CCNC(=O)Nc1nc2cc(-c3cccnc3)c(F)c(C(=O)OC)c2[nH]1` [Compound I-3], the MIC [1] was ≤ 0.5 µg/mL.
For `CCNC(=O)Nc1nc2cc(-c3cccnc3)cc(C(=O)CN(C)C)c2[nH]1` [Compound I-4], the MIC [2] was > 1 µg/mL.
In the case of `CCNC(=O)Nc1nc2cc(-c3cncnc3)cc(C(=O)OC)c2[nH]1` [Compound I-5], the MIC [1] was ≤ 0.5 µg/mL and the MIC [2] was ≤ 0.5 µg/mL.
With `CCNC(=O)Nc1nc2cc(-c3cccnc3)c(F)c(C(=O)NC)c2[nH]1` [Compound I-6] the MIC [1] was 0.5 to 1 µg/mL (≈ 1.4 to 2.81 µM).
`CCNC(=O)Nc1nc2cc(-c3cncnc3)cc(C(=O)NC)c2[nH]1` [Compound I-7] was tested, and the MIC [1] was > 1 µg/mL.
With `CCNC(=O)Nc1nc2cc(-c3cccnc3)cc(C(=O)C3CCCCC3)c2[nH]1` [Compound I-11] the MIC [1] was ≤ 0.5 µg/mL and the MIC [2] was ≤ 0.5 µg/mL.
`CCNC(=O)Nc1nc2cc(-c3cccnc3)cc(C(=O)NCCO)c2[nH]1` [Compound I-13] was tested, and the MIC [1] was > 1 µg/mL.
`CCNC(=O)Nc1nc2cc(-c3cccnc3)cc(C(=O)Nc3cc(C)[nH]n3)c2[nH]1` [Compound I-15] was tested, and the MIC [1] was > 1 µg/mL.
With `CCNC(=O)Nc1nc2cc(-c3cccnc3)cc(C(=O)NC)c2[nH]1` [Compound I-16] the MIC [1] was > 1 µg/mL.
For `CCNC(=O)Nc1nc2cc(-c3cccnc3)cc(C(=O)NCc3ccccc3)c2[nH]1` [Compound I-17], the MIC [1] was 0.5 to 1 µg/mL (≈ 1.21 to 2.41 µM) and the MIC [2] was ≤ 0.5 µg/mL.
`CCNC(=O)Nc1nc2cc(-c3cccnc3)cc(C(C)=O)c2[nH]1` [Compound I-18] was tested, and the MIC [1] was ≤ 0.5 µg/mL and the MIC [2] was ≤ 0.5 µg/mL.
For `CCNC(=O)Nc1nc2cc(-c3cccnc3)cc(C(=O)CC)c2[nH]1` [Compound I-19], the MIC [1] was ≤ 0.5 µg/mL and the MIC [2] was ≤ 0.5 µg/mL.
`CCCC(=O)c1cc(-c2cccnc2)cc2nc(NC(=O)NCC)[nH]c12` [Compound I-20] was tested, and the MIC [1] was ≤ 0.5 µg/mL and the MIC [2] was ≤ 0.5 µg/mL.
For `CCNC(=O)Nc1nc2cc(-c3cccnc3)cc(C(=O)C(C)CC)c2[nH]1` (centres unmarked) [Compound I-21], the MIC [1] was ≤ 0.5 µg/mL and the MIC [2] was ≤ 0.5 µg/mL.
`CCNC(=O)Nc1nc2cc(-c3cccnc3)cc(C(=O)C(C)C)c2[nH]1` [Compound I-22] was tested, and the MIC [1] was ≤ 0.5 µg/mL and the MIC [2] was ≤ 0.5 µg/mL.
With `CCNC(=O)Nc1nc2cc(-c3cncnc3)cc(C(=O)CC)c2[nH]1` [Compound I-23] the MIC [1] was ≤ 0.5 µg/mL and the MIC [2] was ≤ 0.5 µg/mL.
In the case of `CCNC(=O)Nc1nc2cc(-c3cccnc3)cc(C(=O)CC(C)C)c2[nH]1` [Compound I-24], the MIC [1] was ≤ 0.5 µg/mL and the MIC [2] was ≤ 0.5 µg/mL.
For `CCNC(=O)Nc1nc2cc(-c3cccnc3)cc(C(=O)C3CC3)c2[nH]1` [Compound I-25], the MIC [1] was ≤ 0.5 µg/mL and the MIC [2] was ≤ 0.5 µg/mL.
`CCNC(=O)Nc1nc2cc(-c3cccnc3)cc(C(=O)c3nccn3C)c2[nH]1` [Compound I-26] was tested, and the MIC [1] was ≤ 0.5 µg/mL and the MIC [2] was ≤ 0.5 µg/mL.
`CCNC(=O)Nc1nc2cc(-c3cccnc3)cc(C(=O)C3CCCC3)c2[nH]1` [Compound I-28] was tested, and the MIC [1] was ≤ 0.5 µg/mL and the MIC [2] was ≤ 0.5 µg/mL.
For `CCNC(=O)Nc1nc2cc(-c3cccnc3)cc(C(=O)c3nccn3CC)c2[nH]1` [Compound I-29], the MIC [1] was ≤ 0.5 µg/mL and the MIC [2] was ≤ 0.5 µg/mL.
With `CCNC(=O)Nc1nc2cc(-c3cccnc3)cc(C(=O)c3cn(C)cn3)c2[nH]1` [Compound I-30] the MIC [1] was > 1 µg/mL and the MIC [2] was ≤ 0.5 µg/mL.
In the case of `CCNC(=O)Nc1nc2cc(-c3cccnc3)cc(C(=O)CCc3ccccn3)c2[nH]1` [Compound I-31], the MIC [1] was ≤ 0.5 µg/mL and the MIC [2] was ≤ 0.5 µg/mL.
`CCNC(=O)Nc1nc2cc(-c3cc(C)n(Cc4ccccn4)c(=O)c3)cc(C(=O)OC)c2[nH]1` [Compound I-32] was tested, and the MIC [1] was ≤ 0.5 µg/mL and the MIC [2] was ≤ 0.5 µg/mL.
With `CCNC(=O)Nc1nc2cc(-c3cccnc3)cc(C(=O)OC(C)C)c2[nH]1` [Compound I-33] the MIC [1] was ≤ 0.5 µg/mL and the MIC [2] was ≤ 0.5 µg/mL.
In the case of `CCNC(=O)Nc1nc2cc(-c3cccnc3)cc(C(=O)OCC)c2[nH]1` [Compound I-34], the MIC [1] was ≤ 0.5 µg/mL and the MIC [2] was ≤ 0.5 µg/mL.
In the case of `CCNC(=O)Nc1nc2cc(-c3ccn(C)c(=O)c3)c(F)c(C(=O)OC)c2[nH]1` [Compound I-35], the MIC [1] was ≤ 0.5 µg/mL and the MIC [2] was ≤ 0.5 µg/mL.
In the case of `CCNC(=O)Nc1nc2cc(-c3ccn(C)c(=O)c3)c(F)c(C(=O)NC)c2[nH]1` [Compound I-36], the MIC [1] was > 1 µg/mL and the MIC [2] was ≤ 0.5 µg/mL.
With `CCNC(=O)Nc1nc2cc(-c3cccnc3)cc(C(=O)CCCCO)c2[nH]1` [Compound I-37] the MIC [1] was 0.5 to 1 µg/mL (≈ 1.31 to 2.62 µM) and the MIC [2] was ≤ 0.5 µg/mL.
For `CCNC(=O)Nc1nc2cc(-c3cccnc3)cc(/C(CC)=N/OC)c2[nH]1` [Compound I-38], the MIC [1] was ≤ 0.5 µg/mL and the MIC [2] was ≤ 0.5 µg/mL.
With `CCC/C(=N\OC)c1cc(-c2cccnc2)cc2nc(NC(=O)NCC)[nH]c12` [Compound I-39] the MIC [1] was ≤ 0.5 µg/mL and the MIC [2] was ≤ 0.5 µg/mL.
`CCNC(=O)Nc1nc2cc(-c3cccnc3)cc(/C(=N/OC)C3CC3)c2[nH]1` [Compound I-40, 1-[4-(Cyclopropyl-methoxyimino-methyl)-6-pyridin-3-yl-1H-benzoimidazol-2-yl]-3-ethyl-urea] was tested, and the MIC [1] was ≤ 0.5 µg/mL and the MIC [2] was ≤ 0.5 µg/mL.
With `CCNC(=O)Nc1nc2cc(-c3cccnc3)cc(/C(=N/OCC)C3CC3)c2[nH]1` [Compound I-41] the MIC [1] was ≤ 0.5 µg/mL and the MIC [2] was ≤ 0.5 µg/mL.
`CCNC(=O)Nc1nc2cc(-c3cccnc3)cc(/C(=N\O)C3CCCC3)c2[nH]1` [Compound I-42] was tested, and the MIC [1] was ≤ 0.5 µg/mL and the MIC [2] was ≤ 0.5 µg/mL.
For `CCNC(=O)Nc1nc2cc(-c3cccnc3)cc(/C(=N/O)C3CCCC3)c2[nH]1` [Compound I-43], the MIC [1] was ≤ 0.5 µg/mL and the MIC [2] was ≤ 0.5 µg/mL.
In the case of `CCOC(=O)Nc1nc2cc(-c3cccnc3)cc(C(=O)CC)c2[nH]1` [Compound I-44, (7-Propionyl-5-pyridin-3-yl-1H-benzoimidazol-2-yl)-carbamic acid ethyl ester], the MIC [1] was > 1 µg/mL and the MIC [2] was ≤ 0.5 µg/mL.
